≈ marks a conversion by molar mass, not a printed value. Read-outs that look alike come from different tables or passages of the source. Numbered stars: 1 amine (or outer) side, 2 acyl side, 3 side chain; on linkers, the order of the positions; unused ones are H or OH. Bridge positions count the residues as written; N and C are the ends. Square brackets hold non-standard residues; d marks the D form. Peptide text beside a SMILES is read from it. * marks the point of attachment. X1 = O=C1C[C@@H](C(=O)[*:2])N([*:1])C[C@H]1CS[C@@H]1CN2CCC1CC2; NMePhe(4-NMe2) = CN[C@@H](Cc1ccc(N(C)C)cc1)C(=O)O; Picolinoyl(3-OH) = O=C(c1ncccc1O)*; Phg = N[C@H](C(=O)O)c1ccccc1; Orn = NCCC[C@H](N)C(=O)O; dAbu = CC[C@@H](N)C(=O)O; Dap = NC[C@H](N)C(=O)O
Key:
[1] = system: Salmonella enterica (ATCC 14028); test: disk assay, zone of growth inhibition; assay type: cell-based; details: serovar Typhimurium
Method: (§1) The antibiotic activity of the peptides synthesized in this study was initially assayed using a disk assay where samples were applied to sterile paper disks placed on a fresh lawn of bacterial culture on appropriate agar plates as required by the organism. These were then incubated for 16 hr at 37° C. and the zone of growth inhibition surrounding the disks recorded. For quantitative assessment of antibiotic activity in liquid culture, the minimal inhibitory concentration (MIC) of peptides was determined by serial dilution studies. The peptides and standard antibiotics were dissolved in DMSO and the final concentration of DMSO in the liquid cultures was 5%. Both S. aureus RN4220 and E. coli BAS901 were able to grow efficiently at this level of DMSO.
(§2) Crude material from the initial synthesis reactions was used to test the potential of the analogues as antibiotics in susceptibility assays where a solution of the compound was placed on a paper disk on a lawn of bacteria. As described above, E. coli BAS901 is deficient in the Imp/OstA protein, an outer membrane protein, involved in cell envelope biogenesis (1, 5). […] The antibiotic activity of the peptides synthesized in this study was initially assayed using a disk assay where samples were applied to sterile paper disks placed on a fresh lawn of bacterial culture on Tryptic Soya, Luria Broth, or Brain Heart Infusion Agar plates. These were then incubated for 16 hrs at 37° C. and the zone of growth inhibition surrounding the disks recorded.

[2] = system: Staphylococcus aureus (ATCC 29213); test: disk assay, zone of growth inhibition; assay type: cell-based
Method: as §1, §2

[3] = system: Staphylococcus aureus (ATCC 49476); test: disk assay, zone of growth inhibition; assay type: cell-based
Method: as §1, §2

[4] = system: Staphylococcus aureus (ATCC 25923); test: disk assay, zone of growth inhibition; assay type: cell-based
Method: as §1, §2

[5] = system: Streptococcus pneumoniae (ATCC 49619); test: disk assay, zone of growth inhibition; assay type: cell-based
Method: as §1, §2

[6] = system: Enterococcus faecalis (ATCC 51299); test: disk assay, zone of growth inhibition; assay type: cell-based; details: vancomycin, aminoglycoside resistant
Method: as §1, §2

[7] = system: Staphylococcus aureus (ATCC 43300); test: disk assay, zone of growth inhibition; assay type: cell-based; details: methicillin resistant, oxacillin resistant
Method: as §1, §2

[8] = system: Staphylococcus aureus RN4220/pJIM2246; test: microbe, parasite or virus in culture; assay type: cell-based
Method: as §1

[9] = system: Staphylococcus epidermidis (ATCC 12228); test: microbe, parasite or virus in culture; assay type: cell-based
Method: as §1

[10] = system: Streptococcus pneumoniae (ATCC 6305); test: microbe, parasite or virus in culture; assay type: cell-based
Method: as §1

[11] = system: Staphylococcus aureus (ATCC 29213); test: microbe, parasite or virus in culture; assay type: cell-based
Method: as §1

[12] = system: Staphylococcus aureus RN4220/pJIM2246Ωvgb; test: microbe, parasite or virus in culture; assay type: cell-based
Method: as §1

[13] = system: Enterococcus faecalis (ATCC 29212); test: microbe, parasite or virus in culture; assay type: cell-based
Method: as §1

[14] = system: Streptococcus pneumoniae (ATCC 49619); test: microbe, parasite or virus in culture; assay type: cell-based
Method: as §1

[15] = system: Staphylococcus aureus RN4220/pJIM2246ΩermB; test: microbe, parasite or virus in culture; assay type: cell-based
Method: as §1

[16] = system: Staphylococcus epidermidis (ATCC 14990); test: microbe, parasite or virus in culture; assay type: cell-based
Method: as §1

[17] = system: Staphylococcus saprophyticus (ATCC 15305); test: microbe, parasite or virus in culture; assay type: cell-based
Method: as §1

B. subtilis 168 = assay type: cell-based, Bacillus subtilis
Method: as §1
(§3) Crude material from the initial synthesis reactions was used to test the potential of the analogues as antibiotics in susceptibility assays where a solution of the compound was placed on a paper disk on a lawn of bacteria. As described above, E. coli BAS901 is deficient in the Imp/OstA protein, an outer membrane protein, involved in cell envelope biogenesis (1, 5). […] These were then incubated for 16 hrs at 37° C. and the zone of growth inhibition surrounding the disks recorded.

E. coli BAS901/pUCVgb [18] = test: microbe, parasite or virus in culture; assay type: cell-based, Escherichia coli
From the text: (§4) A hyperpermeable E. coli strain, E. coli BAS901, harboring a plasmid constitutively expressing Vgb was created for in vivo studies. The plasmids pVGB, described previously in [14], and […] were digested with Xbal and BamHI, to yield an approximately 1 kb fragment containing a ribosomal binding site upstream of vgb, and linearized pUC19 backbone, respectively. The vgb fragment was then subcloned into the linearized pUC19 backbone downstream of pLac yielding pUC19-VGB. Both pUC19-VGB and pUC19 were transformed E. coli BAS901.
as §1

E. coli BAS901/pUC19 = test: microbe, parasite or virus in culture; assay type: cell-based, Escherichia coli
From the text: as §4, §1

E. coli BAS901/pUCVgb [19] = test: disk assay, zone of growth inhibition; assay type: cell-based, Escherichia coli; details: Vgb constitutively expressed
From the text: as §4, §1, §2

E. coli (ATCC 25922) = test: disk assay, zone of growth inhibition; assay type: cell-based, Escherichia coli; details: wild-type
Method: as §1, §3

E. coli ribosomes = details: fluorescence titration, purified intact E. coli ribosomes
Haemophilus influenza = test: disk assay, zone of growth inhibition; assay type: cell-based, Haemophilus influenzae
Method: as §1, §3

[20] = E. coli BAS901/pUCVgb (expressing Vgb)

SMILES: CC[C@H]1NC(=O)[C@@H](NC(=O)c2ncccc2O)[C@@H](C)OC(=O)[C@H](c2ccccc2)NC(=O)[C@@H]2CC(=O)[C@H](CS[C@@H]3CN4CCC3CC4)CN2C(=O)[C@H](Cc2ccc(N(C)C)cc2)N(C)C(=O)[C@@H]2CCCN2C1=O [Quinupristin, quinupristin, reference compound] ({Picolinoyl(3-OH)}-T[dAbu]P[NMePhe(4-NMe2)][X1][Phg]; ester 1-C)
- Zone of Inhibition [1]: n.i.
- Zone of Inhibition [2]: 2.3 cm
- Zone of Inhibition [3]: 2.6 cm
- Zone of Inhibition [4]: 2.2 cm
- Zone of Inhibition [5]: 2.0 cm
- Zone of Inhibition [6]: n.i.
- Zone of Inhibition [7]: n.i.
- MIC [8]: 2 µg/mL (≈ 1.96 µM)
- MIC ([9]; ATCC12228, Staphylococcus epidermidis (ATCC 12228), read-out: MIC): 0.5 µg/mL (≈ 0.489 µM)
- MIC ([10]; ATCC6305, Streptococcus pneumoniae (ATCC 6305), read-out: MIC): 1 µg/mL (≈ 0.978 µM)
- MIC ([11]; ATCC29213, read-out: MIC): 4 µg/mL (≈ 3.91 µM)
- MIC ([12]; Staphylococcus aureus): 8 µg/mL (≈ 7.83 µM)
- MIC ([13]; ATCC29212, Enterococcus faecalis (ATCC 29212), read-out: MIC): 8 µg/mL (≈ 7.83 µM)
- MIC ([14]; ATCC49619, Streptococcus pneumoniae (ATCC 49619), read-out: MIC): 0.5 µg/mL (≈ 0.489 µM)
- MIC ([15]; Staphylococcus aureus): 8 µg/mL (≈ 7.83 µM)
- MIC ([16]; ATCC14990, Staphylococcus epidermidis (ATCC 14990), read-out: MIC): 1 µg/mL (≈ 0.978 µM)
- MIC ([17]; ATCC15305, Staphylococcus saprophyticus (ATCC 15305), read-out: MIC): 8 µg/mL (≈ 7.83 µM)
- Zone of Inhibition (B. subtilis 168; B. subtilis 168, disk assay): 2.2 cm
- MIC (E. coli BAS901/pUCVgb [18]; [20]): increased significantly
- MIC (E. coli BAS901/pUCVgb [18]; Escherichia coli, BAS901/PUCVGB): > 256 µg/mL
- MIC (E. coli BAS901/pUC19; Escherichia coli, BAS901/PUC19): 4 µg/mL (≈ 3.91 µM)
- Zone of Inhibition (E. coli BAS901/pUCVgb [19]): n.i.^a
- Zone of Inhibition (E. coli BAS901/pUCVgb [19]; listed as quinupristin): inactivated
- Zone of Inhibition (E. coli (ATCC 25922)): n.i.
- ribosome binding (increase of Hpa fluorescence) (E. coli ribosomes): did support ribosome binding
- Zone of Inhibition (Haemophilus influenza): n.i.

SMILES: CC(C)C[C@@H]1NC(=O)[C@H](CCCN)NC(=O)[C@H]([C@@H](C)O)NC(=O)[C@@H](NC(=O)c2ncccc2O)CNC(=O)[C@H](Cc2ccccc2)NC(=O)[C@@H]2CCCN2C(=O)[C@@H](Cc2ccccc2)NC1=O [Compound 5] ({Picolinoyl(3-OH)}-[Dap]T[Orn]L[dF]PF; lactam 1-C)
- Zone of Inhibition [1]: n.i.
- Zone of Inhibition [2]: n.i.
- Zone of Inhibition [3]: n.i.
- Zone of Inhibition [4]: n.i.
- Zone of Inhibition [5]: n.i.
- Zone of Inhibition [6]: n.i.
- Zone of Inhibition [7]: n.i.
- MIC [8]: 256 µg/mL (≈ 276 µM)
- MIC ([9]; ATCC 12228, 16 h): 64 µg/mL (≈ 69 µM)
- MIC ([10]; ATCC 6305, 16 h): 32 µg/mL (≈ 34.5 µM)
- MIC [11]: 256 µg/mL (≈ 276 µM)
- MIC ([12]; Staphylococcus aureus RN4220/pJIM2246Ωvgb): 256 µg/mL (≈ 276 µM)
- MIC ([13]; ATCC 29212, 16 h): 128 µg/mL (≈ 138 µM)
- MIC ([14]; ATCC 49619, 16 h): 128 µg/mL (≈ 138 µM)
- MIC ([15]; Staphylococcus aureus RN4220/pJIM2246ΩermB): 256 µg/mL (≈ 276 µM)
- MIC ([16]; ATCC 14990, 16 h): 64 µg/mL (≈ 69 µM)
- MIC ([17]; ATCC 15305, 16 h): 64 µg/mL (≈ 69 µM)
- Zone of Inhibition (B. subtilis 168; 168, 16 h): 0.8 cm
- MIC (E. coli BAS901/pUCVgb [18]; [20]): 32 µg/mL (≈ 34.5 µM)
- MIC (E. coli BAS901/pUC19; E. coli BAS901/pUC19 (control), 5% DMSO): 32 µg/mL (≈ 34.5 µM)
- Zone of Inhibition (E. coli BAS901/pUCVgb [19]): still exhibit zones of inhibition
- Zone of Inhibition (E. coli (ATCC 25922)): n.i.
- ribosome binding (increase of Hpa fluorescence) (E. coli ribosomes): did not appear to interact with the ribosome
- Zone of Inhibition (Haemophilus influenza): n.i.

From patent publication US7169756B2, “Streptogramin antibiotics” (priority 2005, dated 2007)
